The subject of data set [1] is HCV genotype 1b subgenomic replicon. Kind of data set: Anti-HCV assay in Huh 5-2 cells (luciferase replicon readout). It counts as cell-based, hepatitis C virus (HCV). To be noted: for EC50: Huh-5-2, Huh 5-2 cells, luminescence. An excerpt:
(§1) An evaluation of the antiviral effects of the conjugated compounds was initially performed in Huh 5-2 cells utilizing the HCV genotype 1b subgenomic replicon system, based on previously reported procedures. By analyzing the dose–response curves, we calculated the concentration of each compound that inhibited the viral replication by 50% (EC50) and the concentration that reduced the host-cell metabolic activity by 50% (CC50). These values were then used to compute the selectivity index (SI = CC50/EC50), which serves as an indicator of a compound’s therapeutic window. Even if an EC50 was determined from the dose–response curve in the antiviral assay, the compounds that were evaluated may not qualify as promising hits. […] It is likely that the antiviral activity observed in the other compounds is due to their nonspecific or pleiotropic effects on the host cell.
Huh 5-2 cells were plated in white, tissue culture-treated 96-well view plates (Packard, Canberra, Canada) at a density of 5 × 10^3 cells per well, using complete Dulbecco’s Modified Eagle Medium (DMEM) containing 250 µg/mL G418. Following 24 h incubation at 37 °C with 5% CO2, the medium was discarded and serial 3-fold dilutions of the test compounds—prepared in complete DMEM lacking G418—were added to reach a final volume of 100 µL per well. After an additional 4-day incubation period under the same conditions, the medium was removed, and luciferase activity was assessed using the Steady-Glo luciferase assay kit (Promega, Leiden, The Netherlands). Luminescence was measured with a Luminoskan Ascent reader (Thermo, Vantaa, Finland). The EC50 value was determined as the compound concentration resulting in a 50% decrease in luciferase signal.

Data set [2] in a line: Host-cell metabolic activity (MTS assay) in Huh 5-2 cells. It counts as cell-based. To be noted: human.
Source text: as §1

The next data set relates to Detroit 551 cells. Description: Cell viability (MTS) assay in Detroit 551 cells. Type of data set: cell-based. To be noted: Homo sapiens, Detroit 551, 72 h, read-out: IC50 (cell survival rate of 50%). The procedure:
Detroit 551 cells, a human fibroblast cell line, are routinely employed to assess both acute and chronic toxicity in normal human cells. Evaluating the cytotoxicity of compounds in Detroit 551 cells helps to identify potential safety concerns early in drug development. The three promising leads, 7a, 7b, and 18, were tested in a Detroit 551 assay using the antineoplastic and antibiotic agent actinomycin D as a positive control.
Detroit 551 cells were harvested and seeded into a 96-well plate, then incubated at 37 °C for 24 h. A serial dilution of the test compound was prepared in eight three-fold concentrations (20,000 nM, 6667 nM, 2222 nM, 741 nM, 247 nM, 82 nM, 27 nM, and 9 nM), and 10 µL of each dilution was added to the corresponding wells. The plate was then returned to 37 °C for an additional 72 h of incubation. After this incubation, a 3-(4,5-dimethylthiazol-2-yl)-5-(3-carboxymethoxyphenyl)-2-(4-sulfophenyl)-2H-tetrazolium (MTS) assay medium (mixed in a 2:0.1 ratio of MTS–phenazine methyl sulfate (PMS)) was prepared. The plate was moved to a biological safety cabinet, and 21 µL of the MTS medium was added to each well. The plate was then incubated at 37 °C for 90 min before absorbance was measured at 490 nm on a Victor 2 plate reader (PerkinElmer, Inc., Waltham, MA, USA). Data were subsequently analyzed to assess cytotoxicity.

[3] abbreviates: Hepatitis C virus, primary screening, tested starting at 50 μg/mL.
Setting [4] is: Hepatitis C virus, secondary screen starting at 125 μg/mL, average of triplicate.
Where [5] appears, read: Huh 5-2 cells, primary screening starting at 50 μg/mL.
The mark [6] stands for this setting: Huh 5-2 cells, secondary screen starting at 125 μg/mL.
Setting [7] is: primary screening, tested starting at 50 μg/mL.
[8] abbreviates: secondary screen starting at 125 μg/mL.

Consider twelve compounds from publication PMC12029179, “6-Chlorocoumarin Conjugates with Nucleobases and Nucleosides as Potent Anti-Hepatitis C Virus Agents” (Molecules, 2025).

Molecules are shown by their SMILES. Numbered stars: 1 amine (or outer) side, 2 acyl side, 3 side chain; on linkers, the order of the positions; unused ones are H or OH. Bridge positions count the residues as written; N and C are the ends. Square brackets hold non-standard residues; d marks the D form. Peptide text beside a SMILES is read from it. I, II: the chains in the order shown. Actinocin(9to1) = Cc1c2oc3c(C)ccc(C(=O)[*:1])c3nc-2c(C(=O)[*:2])c(N)c1=O; NMeV = CN[C@H](C(=O)O)C(C)C; Sar = CNCC(=O)O

Turning to `Nc1ccnc(SCc2cc3cc(Cl)ccc3oc2=O)n1` [Compound 20, 4-Amino-2-[(6′-chlorocoumarin-3′-yl)methylthio]pyrimidine], the EC50 is 53 µM in data set [1] (setting [3]) and 21 µM in data set [1] (setting [4]). Also, in data set [1] (Hepatitis C virus, Huh 5-2 cells, at 50 μg/mL), testing at 50 µg/mL gave an inhibition of 69.8%. The compound further came in with an inhibition at 125 µg/mL in data set [1] (Hepatitis C virus, Huh 5-2 cells, at 125 μg/mL) of less than 80%. Further, the figures for the “SI (CC50/EC50)” value in data set [1] (setting [5]) and in data set [1] (setting [6]) were greater than 2.9 and greater than 19, respectively. In addition, the figures for the CC50 in data set [2] (setting [7]) and in data set [2] (setting [8]) were greater than 156 µM and greater than 391 µM, respectively.

In turn, `O=c1nc(SCc2cc3cc(Cl)ccc3oc2=O)cc[nH]1` [Compound 11a, 4-[(6′-Chlorocoumarin-3′-yl)methylthio]uracil] returned an EC50 in data set [1] (setting [3]) of 18 µM. The “SI (CC50/EC50)” value in data set [1] (setting [5]) is greater than 8.6. Moreover, in data set [2] (setting [7]), the CC50 was greater than 156 µM.

Consider `Cc1c2oc3c(C)ccc(C(=O)N[C@@H]4C(=O)N[C@H](C(C)C)C(=O)N5CCC[C@H]5C(=O)N(C)CC(=O)N(C)[C@@H](C(C)C)C(=O)O[C@@H]4C)c3nc-2c(C(=O)N[C@@H]2C(=O)N[C@H](C(C)C)C(=O)N3CCC[C@H]3C(=O)N(C)CC(=O)N(C)[C@@H](C(C)C)C(=O)O[C@@H]2C)c(N)c1=O` [Actinomycin D, actinomycin D, reference compound] (I: T[dV]P[Sar][NMeV] / II: T[dV]P[Sar][NMeV]; ester I:1-I:C, II:1-II:C; linker I:N-II:N via Actinocin(9to1)), for which the IC50 in the data set with Detroit 551 cells was 15.4 µM.

Regarding `Nc1nc2[nH]c(SCc3cc4cc(Cl)ccc4oc3=O)nc2c(=O)[nH]1` [Compound 5b, 8-[(6’-Chlorocoumarin-3’-yl)methylthio]guanine], the EC50 in data set [1] (setting [3]) was determined as 51 µM. In addition, in data set [1] (setting [5]), the “SI (CC50/EC50)” value is reported as greater than 2.6. Moreover, the half-maximal cytotoxic concentration (CC50) in data set [2] (setting [7]) was greater than 133 µM.

With `Cc1c[nH]c(=O)nc1SCc1cc2cc(Cl)ccc2oc1=O` [Compound 11b, 4-(6′-Chlorocoumarin-3′-yl)methylthio-5-methyluracil], in data set [1] (setting [3]), a half-maximal effect (EC50) was put at 16 µM. Moreover, the “SI (CC50/EC50)” value in data set [1] (setting [5]) is on record as greater than 9.1. In data set [2] (setting [7]), this compound gave a CC50 greater than 149 µM.

As to `Nc1nc(SCc2cc3cc(Cl)ccc3oc2=O)c2nc[nH]c2n1` [Compound 9a, 2-Amino-6-[(6′-chlorocoumarin-3′-yl)methylthio]purine], the figures for the concentration giving a half-maximal response (EC50) in data set [1] (setting [3]) and in data set [1] (setting [4]) were 65 µM and 48 µM, respectively. Moreover, the “SI (CC50/EC50)” value in data set [1] (setting [5]) is listed as greater than 2.1; in data set [1] (setting [6]) it was greater than 7.3. The CC50 is greater than 139 µM in data set [2] (setting [7]) and greater than 347 µM in data set [2] (setting [8]).

`Cc1cn([C@H]2C[C@H](O)[C@@H](CO)O2)c(=O)nc1SCc1cc2cc(Cl)ccc2oc1=O` [Compound 16b, 4-[(6′-Chlorocoumarin-3′-yl)methylthio]thymidine]: the EC50 in data set [1] (setting [3]) was determined as 59 µM. Moreover, the “SI (CC50/EC50)” value in data set [1] (setting [5]) is on record as greater than 1.9. In addition, the CC50 in data set [2] (setting [7]) was greater than 111 µM.

`Nc1ncnc2[nH]c(SCc3cc4cc(Cl)ccc4oc3=O)nc12` [Compound 3a, 8-[(6′-Chlorocoumarin-3′-yl)methylthio]adenine] registered an EC50 in data set [1] (setting [3]) of 10 µM. In addition, the “SI (CC50/EC50)” value in data set [1] (setting [5]) came out at 6.7. This compound also yielded a cytotoxic concentration (CC50) in data set [2] (setting [7]) of 69 µM.

`Nc1nc2c(nc(SCc3cc4cc(Cl)ccc4oc3=O)n2[C@@H]2O[C@H](CO)[C@@H](O)[C@H]2O)c(=O)[nH]1` [Compound 5a, 8-[(6′-Chlorocoumarin-3′-yl)methylthio]guanosine] yielded an EC50 in data set [1] (setting [3]) greater than 98 µM. In addition, the CC50 in data set [2] (setting [7]) was greater than 98 µM.

The compound `O=c1oc2ccc(Cl)cc2cc1CSc1ccn([C@@H]2O[C@H](CO)[C@@H](O)[C@H]2O)c(=O)n1` [Compound 16a, 4-[(6′-Chlorocoumarin-3′-yl)methylthio]uridine] had an EC50 in data set [1] (setting [3]) of 16 µM. In addition, the “SI (CC50/EC50)” value in data set [1] (setting [5]) is reported as greater than 6.8. Besides, the CC50 in data set [2] (setting [7]) was greater than 108 µM.

Compound `Nc1ncnc2c1nc(SCc1cc3cc(Cl)ccc3oc1=O)n2[C@@H]1O[C@H](CO)[C@@H](O)[C@H]1O` [Compound 3b, 8-[(6′-Chlorocoumarin-3′-yl)methylthio]adenosine] registered an EC50 in data set [1] (setting [3]) of 32 µM. In addition, in data set [1] (setting [5]), the “SI (CC50/EC50)” value turned out to be 1.5. In addition, the CC50 in data set [2] (setting [7]) stood at 48 µM.

As for `Nc1nc(SCc2cc3cc(Cl)ccc3oc2=O)c2ncn([C@@H]3O[C@H](CO)[C@@H](O)[C@H]3O)c2n1` [Compound 9b, 2-Amino-6-(6′-chlorocoumarin-3′-yl)methylthio-9-(β-D-ribofuranos-1″-yl)purine], a half-maximal effect in data set [1] (setting [3]) (EC50) was put at 15 µM. The “SI (CC50/EC50)” value in data set [1] (setting [5]) was greater than 6.9. Besides, the CC50 in data set [2] (setting [7]) was greater than 102 µM.
